The record followed here is US8062669B2, “Vectorization system comprising nanoparticles of homogenous size of at least one polymer and at least one positively charged polysaccharide and method for the preparation thereof” (Bioalliance Pharma, priority 2002, dated 2011).

Protocol for CEM 4FX cells: (§1) The NIH 3T3 and NIH 3T3 EWS-Fli-1 (adherent cells) were sown on 6-well plates at 100,000 cells per well in their culture medium without puromycin and the IW35 cells (cells in suspension) in 12-well plates at the rate of 750,000 cells per well. Other cells in suspension CEM 4FX were also tested. They were sown at 10,000 cells per well in 96-well plates.
(§2) Different concentrations of CTAB and chitosan of various molecular weight were tested.
(§3) Two controls were used and corresponded to the cells in the culture medium on the one hand and in the culture medium containing 100 μl of NaCl 150 mM on the other hand. After 24 hours of incubation, the measurements of cytotoxicity were performed by a test measuring the activity of the mitochondrial dehydrogenase enzymes of the living cells by oxidation of MTT (3-(4,5-dimethyl thiazol-2-yl)-2,5-diphenyl tetrazolium bromide; SIGMA) in formazan. The amount of formazan produced is directly proportional to the number of metabolically active live cells. The cells were washed with PBS and 1 ml of the medium was added. The cells were then incubated at 37° C. with 100 μl of a solution of MTT (5 mg/ml in PBS) for 3 hours. 1 ml of a lysis solution (10% SDS, 10 mM Tris) was then added to each well. The cells were incubated at 37° C. overnight. The medium was homogenized and the optical density was read at 560 nm (Dynatech MRX).
Protocol for IW35 cells: as §1, §2, §3
Protocol for NIH 3T3 EWS-Fli1 cells: (§4) The NIH 3T3 and NIH 3T3 EWS-Fli-1 (adherent cells) were sown on 6-well plates at 100,000 cells per well in their culture medium without puromycin and the IW35 cells (cells in suspension) in 12-well plates at the rate of 750,000 cells per well.
(§5) For the first two cell types, the cells were sown 24 hours prior to their transfection. The medium was then eliminated and 100 μl of solution of the complex to be tested was brought into contact with the cells in 900 μl of medium.
as §2
(§6) Two controls were used and corresponded to the cells in the culture medium on the one hand and in the culture medium containing 100 μl of NaCl 150 mM on the other hand. After 24 hours of incubation, the measurements of cytotoxicity were performed by a test measuring the activity of the mitochondrial dehydrogenase enzymes of the living cells by oxidation of MTT (3-(4,5-dimethyl thiazol-2-yl)-2,5-diphenyl tetrazolium bromide; SIGMA) in formazan. The amount of formazan produced is directly proportional to the number of metabolically active live cells. The cells were washed with PBS and 1 ml of the medium was added. The cells were then incubated at 37° C. with 100 μl of a solution of MTT (5 mg/ml in PBS) for 3 hours. […] The medium was homogenized and the optical density was read at 560 nm (Dynatech MRX).
Protocol for NIH 3T3 cells: as §4, §5, §2, §6

Take `CCCCCCCCCCCCCCCC[N+](C)(C)C.[Br-]` [CTAB, cetyl trimethyl ammonium bromide]: the toxicity result with CEM 4FX cells was “elevated toxicity at low concentrations”; in the data set with IW35 cells it was “elevated toxicity at low concentrations”; in the data set with NIH 3T3 EWS-Fli1 cells, “notable toxicity”; with NIH 3T3 cells, “notable toxicity”.
